Data from ChEMBL document CHEMBL4651402, “Screening of ~5500 FDA-approved drugs and clinical candidates for anti-SARS-CoV-2 activity” (2021).

Tested on: SARS-CoV-2
Assay: microbe, parasite or virus in culture
Details: Severe acute respiratory syndrome coronavirus 2, Vero C1008, 48 h

Structure (SMILES) | IC50 | IC50 (read-out: pIC50 (converted))
O=C(/C=C/C=C/c1ccc2c(c1)OCO2)N1CCCCC1 [PIPERINE] | > 20 µM | > 20 µM
O=C(O)c1ccc2c(c1)OCO2 [PIPERONYLIC ACID] | > 20 µM | > 20 µM
c1ccc2c(c1)OCC(CN1CCCCC1)O2 (centres undefined) [PIPEROXAN] | > 20 µM | > 20 µM
CN1CCN(c2cc3c(nn2)Oc2ccccc2N3C)CC1 [PIPOFEZINE] | > 20 µM | > 20 µM
COc1c(C(O)CCc2ccc(O)cc2)c(OCCN2CCCCC2)c(OC)c2occc12 (centres undefined) [PIPROFUROL] | > 20 µM | > 20 µM
Cc1nc2ccccn2c(=O)c1CCN1CCC(C(=O)c2ccc(F)cc2)CC1 [PIRENPERONE] | > 20 µM | > 20 µM
CN1CCN(CC(=O)N2c3ccccc3C(=O)Nc3cccnc32)CC1 [PIRENZEPINE] | > 20 µM | > 20 µM
NS(=O)(=O)c1cc(C(=O)O)cc(N2CCCC2)c1Oc1ccccc1 [PIRETANIDE] | > 20 µM | > 20 µM
Cc1ccc(=O)n(-c2ccccc2)c1 [PIRFENIDONE] | > 20 µM | > 20 µM
c1cnc(N2CCN(Cc3ccc4c(c3)OCO4)CC2)nc1 [PIRIBEDIL] | > 20 µM | > 20 µM
Cc1ccc2c(c1)c1c3n2CCNC3CCC1 (centres undefined) [PIRLINDOLE] | > 20 µM | > 20 µM
Cc1cc(CC(C)CC(C)(C)C)n(O)c(=O)c1 (centres undefined) [PIROCTONE] | > 20 µM | > 20 µM
CN1CCC/C1=N\C(=N\c1ccccc1)N1CCCC1 [PIROGLIRIDE] | > 20 µM | > 20 µM
NC(=O)C(CCN1CCN2CCCC2C1)(c1ccccc1)c1ccccc1 (centres undefined) [PIROLAZAMIDE] | > 20 µM | > 20 µM
CCn1cc(C(=O)O)c(=O)c2cnc(N3CCCC3)nc21 [PIROMIDIC ACID] | > 20 µM | > 20 µM
NCCCNc1ccc2c3c(nn2CCNCCO)-c2c(O)ccc(O)c2C(=O)c13 [PIROXANTRONE] | > 20 µM | > 20 µM
CN1C(C(=O)Nc2ccccn2)=C(O)c2ccccc2S1(=O)=O [PIROXICAM] | > 20 µM | > 20 µM
CCc1[nH]c(=O)[nH]c1C(=O)c1ccncc1 [PIROXIMONE] | > 20 µM | > 20 µM
O=C(O)C[C@H](O)C[C@H](O)/C=C/c1c(C2CC2)nc2ccccc2c1-c1ccc(F)cc1 [PITAVASTATIN] | > 50.1 µM | > 50.1 µM
Clc1ccc(CCCOCCCN2CCCCC2)cc1 [PITOLISANT] | > 20 µM | > 20 µM
CC(C)(C)C(=O)NCCCC(=O)O [PIVAGABINE] | > 20 µM | > 20 µM
CC(C)(C)C(=O)OCOC(=O)[C@@H]1N2C(=O)[C@@H](NC(=O)[C@H](N)c3ccccc3)[C@H]2SC1(C)C [PIVAMPICILLIN] | > 20 µM | > 20 µM
CC(C)(C)C(=O)NNCc1ccccc1 [PIVHYDRAZINE] | > 20 µM | > 20 µM
CN1CCC(=C2c3ccccc3CCc3sccc32)CC1 [PIZOTYLINE] | > 20 µM | > 20 µM
C[C@@H](Nc1ncnc2[nH]c(-c3ccc(O)cc3)cc12)c1ccccc1 [PKI-166] | > 20 µM | > 20 µM
Cc1cc(CCCOc2c(C)cc(-c3noc(C(F)(F)F)n3)cc2C)on1 [PLECONARIL] | > 20 µM | > 20 µM

Structure (SMILES) | IC50 | IC50 (read-out: pIC50 (converted))
CC1=CC(=O)c2c(O)cccc2C1=O [PLUMBAGIN] | > 20 µM | > 20 µM
O=C(N[C@H]1CN2CCC1CC2)c1ccc(Cl)cc1 [PNU-282987] | > 20 µM | > 20 µM
COc1cc([C@@H]2c3cc4c(cc3[C@H](O)[C@H]3COC(=O)[C@H]23)OCO4)cc(OC)c1OC [PODOFILOX] | > 20 µM | > 20 µM
C[N+]1(C)CCCC1COC(=O)C(O)(c1ccccc1)c1ccccc1 (centres undefined) [POLDINE] | > 20 µM | > 20 µM
CN1C(CSCC(F)(F)F)Nc2cc(Cl)c(S(N)(=O)=O)cc2S1(=O)=O (centres undefined) [POLYTHIAZIDE] | > 20 µM | > 20 µM
CSCC[C@H](N)C(=O)N[C@@]1(C(=O)O)CS(=O)(=O)[C@H]2[C@H](C(=O)O)[C@H]21 [POMAGLUMETAD METHIONIL ANHYDROUS] | > 20 µM | > 20 µM
Nc1cccc2c1C(=O)N(C1CCC(=O)NC1=O)C2=O (centres undefined) [POMALIDOMIDE] | > 20 µM | > 20 µM
O=C(O)Cc1nn(Cc2ccc(Br)cc2F)c(=O)c2ccccc12 [PONALRESTAT] | > 20 µM | > 20 µM
CCC/N=C1\S/C(=C\c2ccc(OC[C@H](O)CO)c(Cl)c2)C(=O)N1c1ccccc1C [PONESIMOD] | > 20 µM | > 20 µM
C=CC(=O)N1CCC(Oc2cc3c(Nc4ccc(Cl)c(Cl)c4F)ncnc3cc2OC)CC1 [POZIOTINIB] | > 20 µM | > 20 µM
CCCCc1nc2cc(/C=C/C(=O)NO)ccc2n1CCN(CC)CC [PRACINOSTAT] | > 20 µM | > 20 µM
CC(=O)Nc1ccc(OCC(O)CNC(C)C)cc1 (centres undefined) [PRACTOLOL] | > 20 µM | > 20 µM
C[n+]1ccccc1C=NO [PRALIDOXIME] | > 20 µM | > 20 µM
CCCN[C@H]1CCc2nc(N)sc2C1 [PRAMIPEXOLE] | > 20 µM | > 20 µM
CC(C)NC1CCC(c2ccccc2)(c2ccccc2)CC1 [PRAMIVERINE] | > 20 µM | > 20 µM
CCCCOc1ccc(OCCCN2CCOCC2)cc1 [PRAMOXINE] | > 20 µM | > 20 µM
CC(C(=O)O)c1ccc2c(c1)Cc1cccnc1O2 (centres undefined) [PRANOPROFEN] | > 20 µM | > 20 µM
COc1ccc(C(=O)c2c(C)n(CCN3CCOCC3)c3ccccc23)cc1 [PRAVADOLINE] | > 20 µM | > 20 µM
CC[C@H](C)C(=O)O[C@H]1C[C@H](O)C=C2C=C[C@H](C)[C@H](CC[C@@H](O)C[C@@H](O)CC(=O)O)[C@H]21 [PRAVASTATIN] | > 20 µM | > 20 µM
O=C(C1CCCCC1)N1CC(=O)N2CCc3ccccc3C2C1 (centres undefined) [PRAZIQUANTEL] | > 50.1 µM | > 50.1 µM
COc1cc2nc(N3CCN(C(=O)c4ccco4)CC3)nc(N)c2cc1OC [PRAZOSIN] | > 20 µM | > 20 µM
CCCN1CCC[C@@H](c2cccc(O)c2)C1 [PRECLAMOL] | > 20 µM | > 20 µM
CCOC(=O)O[C@]1(C(=O)COC(=O)CC)CC[C@H]2[C@@H]3CCC4=CC(=O)C=C[C@]4(C)[C@H]3[C@@H](O)C[C@@]21C [PREDNICARBATE] | > 20 µM | > 20 µM
C[C@]12C=CC(=O)C=C1CC[C@@H]1[C@@H]2[C@@H](O)C[C@@]2(C)[C@H]1CC[C@]2(O)C(=O)CO [PREDNISOLONE] | > 20 µM | > 20 µM
CC(=O)[C@H]1CC[C@H]2[C@@H]3CC=C4C[C@@H](O)CC[C@]4(C)[C@H]3CC[C@]12C [PREGNENOLONE] | > 20 µM | > 20 µM
Cc1c2c(cn1C)NC(=O)CN=C2c1ccccc1 [PREMAZEPAM] | > 20 µM | > 20 µM

Structure (SMILES) | IC50 | IC50 (read-out: pIC50 (converted))
CC(C)NC[C@H](O)COc1ccc(O)cc1 [PRENALTEROL] | > 20 µM | > 20 µM
c1ccc(C(Cc2noc(CCN3CCCCC3)n2)c2ccccc2)cc1 [PRENOXDIAZINE] | > 20 µM | > 20 µM
Cc1cn2nc([C@@H]3CCCCN3C(=O)c3cc(Cl)ccc3NS(C)(=O)=O)cc2nc1N1CC[C@H](N)C1 [PRESATOVIR] | > 20 µM | > 20 µM
CCN1CCC(=C(c2ccccc2)c2ccccc2)C1 [PRIDEFINE] | > 20 µM | > 20 µM
OC(CCN1CCCCC1)(c1ccccc1)c1ccccc1 [PRIDINOL] | > 20 µM | > 20 µM
CCCN1CCC(c2cccc(S(C)(=O)=O)c2)CC1 [PRIDOPIDINE] | > 20 µM | > 20 µM
CC(C)(C)c1cc(C(=O)c2cccs2)cc(C(C)(C)C)c1O [PRIFELONE] | > 20 µM | > 20 µM
CCCNC(C)C(=O)Nc1ccccc1C (centres undefined) [PRILOCAINE] | > 20 µM | > 20 µM
COc1cc(NC(C)CCCN)c2ncccc2c1 (centres undefined) [PRIMAQUINE] | > 20 µM | > 20 µM
Cc1ccccc1OCC(O)CNCCn1cc(C)c(=O)[nH]c1=O (centres undefined) [PRIMIDOLOL] | > 20 µM | > 20 µM
CCC1(c2ccccc2)C(=O)NCNC1=O [PRIMIDONE] | > 20 µM | > 20 µM
CN1Cc2cc(C3=NNC(=O)CC3)ccc2NC1=O [PRINOXODAN] | > 20 µM | > 20 µM
CCCN(CCC)S(=O)(=O)c1ccc(C(=O)O)cc1 [PROBENECID] | > 20 µM | > 20 µM
CCCc1c2oc(C(=O)O)cc(=O)c2cc2c(=O)cc(C(=O)O)oc12 [PROBICROMIL] | > 20 µM | > 20 µM
CC(C)(Sc1cc(C(C)(C)C)c(O)c(C(C)(C)C)c1)Sc1cc(C(C)(C)C)c(O)c(C(C)(C)C)c1 [PROBUCOL] | > 20 µM | > 20 µM
CCN(CC)CCNC(=O)c1ccc(N)cc1 [PROCAINAMIDE] | > 20 µM | > 20 µM
CCN(CC)CCOC(=O)c1ccc(N)cc1 [PROCAINE] | > 20 µM | > 20 µM
CNNCc1ccc(C(=O)NC(C)C)cc1 [PROCARBAZINE] | > 20 µM | > 20 µM
CCC(NC(C)C)C(O)c1ccc(O)c2[nH]c(=O)ccc12 (centres undefined) [PROCATEROL] | > 20 µM | > 20 µM
CN1CCN(CCCN2c3ccccc3Sc3ccc(Cl)cc32)CC1 [PROCHLORPERAZINE] | > 20 µM | > 20 µM
OC(c1ccc(Cl)cc1)(c1ccc(Cl)cc1)C1CC1 [PROCLONOL] | > 20 µM | > 20 µM
O=C(O)CCc1nc2ccccc2[nH]1 [PROCODAZOLE] | > 20 µM | > 20 µM
OC(CCN1CCCC1)(c1ccccc1)C1CCCCC1 (centres undefined) [PROCYCLIDINE] | > 20 µM | > 20 µM
CCC(=O)OC1(c2ccccc2)CCN(C)C1C (centres undefined) [PRODILIDINE] | > 20 µM | > 20 µM
CCCC1(c2cccc(O)c2)CCN(C)C1 (centres undefined) [PROFADOL] | > 20 µM | > 20 µM
